This passage reports MIC results from patent US20230002372A1, “AZAINDOLE CARBOXAMIDE COMPOUNDS FOR THE TREATMENT OF MYCOBACTERIAL INFECTIONS” (THE GLOBAL ALLIANCE FOR TB DRUG DEVELOPMENT, INC., priority 2019, published 2023).

As a reminder, the MIC is the least concentration at which growth counts as inhibited.

The test system of one assay is M tb H37Rv. Briefly: MIC determination against M tb H37Rv (green fluorescent protein reporter assay; MIC-MABA). In kind it is cell-based, Mycobacterium tuberculosis. Conditions: Mycobacterium tuberculosis, H37RV, 240 h, read-out: M. TB H37Rv: MIC-MABA: MIC, M. tb H37Rv; 7H9 broth; 10 days exposure; MIC = lowest concentration inhibiting fluorescence by 90%. Background: In a reporter assay the amount or activity of a reporter protein is the signal.

Another assay concerns Mycobacterium abscessus. The experiment in a line: MIC against Mycobacterium abscessus (Mab_ATCC, MHII broth). In kind it is cell-based. The following applies: Mycobacteroides abscessus; Mycobacterium abscessus ATCC strain; Mueller-Hinton broth (MHII). The text has this:
Key for Tables: MIC: Minimum Inhibitory Concentration; MABA: microplate-based Alamar Blue assay; Mab: Mycobacterium abscessus; ATCC: American Type Culture Collection; and MHII: Mueller-Hinton broth.

Converted amounts (≈) assume the structure as drawn.

On to `O=C(NC1CCCCCCC1)c1cc2c(Cl)cncc2[nH]1` [MPL-034, 4-chloro-N-cyclooctyl-1H-pyrrolo[2,3-c]pyridine-2-carboxamide], for which the MIC turned out to be 0.25 µg/mL (≈ 0.818 µM) in the assay on M tb H37Rv and 2 µg/mL (≈ 6.54 µM) against Mycobacterium abscessus.

With `Cc1cc(Cl)c2cc(C(=O)N[C@H]3C[C@H]4C[C@@H]([C@@H]3C)C4(C)C)[nH]c2n1` [MPL-045, 4-chloro-6-methyl-N-[(1S,2S,3S,5R)-2,6,6-trimethylnorpinan-3-yl]-1H-pyrrolo[2,3-b]pyridine-2-carboxamide], the figures for the MIC with M tb H37Rv and against Mycobacterium abscessus were 0.069 µg/mL (≈ 0.199 µM) and 2 µg/mL (≈ 5.78 µM), respectively.

`Cc1nc2[nH]c(C(=O)N[C@@H]3CCC[Si](C)(C)CC3)cc2c(F)c1Cl` (single isomer, unassigned) [MPL-316A]: the minimal inhibitory concentration (MIC) amounted to 0.014 µg/mL (≈ 0.0381 µM) with M tb H37Rv and 0.19 µg/mL (≈ 0.516 µM) against Mycobacterium abscessus.

Consider `COc1ccc2cc(C(=O)N[C@H]3CCC[Si](C)(C)CC3)[nH]c2n1` (single isomer, unassigned) [MPL-466A], for which the MIC in the assay on M tb H37Rv is 0.042 µg/mL (≈ 0.127 µM); with Mycobacterium abscessus it was 0.25 µg/mL (≈ 0.754 µM).

`Cc1cc(Cl)c2cc(C(=O)NC3CC[Si](C)(C)C3)[nH]c2n1` (stereo not shown) [MPL-401, 4-chloro-N-(1,1-dimethylsilolan-3-yl)-6-methyl-1H-pyrrolo[2,3-b]pyridine-2-carboxamide]: the results for the MIC in the assay on M tb H37Rv and with Mycobacterium abscessus were 0.016 µg/mL (≈ 0.0497 µM) and 0.75 µg/mL (≈ 2.33 µM), respectively.

For the compound `Cc1nc(F)cc2cc(C(=O)NC3CCC(C)(C)CC3)[nH]c12` [MPL-135, N-(4,4-dimethylcyclohexyl)-5-fluoro-7-methyl-1H-pyrrolo[2,3-c]pyridine-2-carboxamide], the MIC with M tb H37Rv turned out to be 1.5 µg/mL (≈ 4.94 µM); with Mycobacterium abscessus, 8 µg/mL (≈ 26.4 µM).

For `Cc1cc(F)c2c(C)c(C(=O)NC3CC[Si](C)(C)CC3)[nH]c2n1` [MPL-209, N-(1,1-dimethylsilinan-4-yl)-4-fluoro-3,6-dimethyl-1H-pyrrolo[2,3-b]pyridine-2-carboxamide], the minimal inhibitory concentration (MIC) with M tb H37Rv is 0.03 µg/mL (≈ 0.09 µM); in the assay with Mycobacterium abscessus, 1 µg/mL (≈ 3 µM).

Regarding `Cc1nc2[nH]c(C(=O)NC3CCC(C)(C)CC3)cc2c(F)c1F` [MPL-067, N-(4,4-dimethylcyclohexyl)-4,5-difluoro-6-methyl-1H-pyrrolo[2,3-b]pyridine-2-carboxamide], the figures for the MIC in the assay on M tb H37Rv and in the assay with Mycobacterium abscessus were 0.01 µg/mL (≈ 0.0311 µM) and 0.25 µg/mL (≈ 0.778 µM), respectively.

Turning to `COc1ccc2cc(C(=O)NC3CC[Si](C)(C)CC3)[nH]c2n1` [MPL-387, N-(1,1-dimethylsilinan-4-yl)-6-methoxy-1H-pyrrolo[2,3-b]pyridine-2-carboxamide], the figures for the minimum inhibitory concentration (MIC) in the assay with M tb H37Rv and with Mycobacterium abscessus were 0.163 µg/mL (≈ 0.513 µM) and 0.5 µg/mL (≈ 1.57 µM), respectively.

As to `Cc1nc2[nH]c(C(=O)NC3CCC[Si](C)(C)CC3)cc2c(F)c1Cl` (stereo not shown) [MPL-316, 5-chloro-N-(1,1-dimethylsilepan-4-yl)-4-fluoro-6-methyl-1H-pyrrolo[2,3-b]pyridine-2-carboxamide], the values for the MIC in the assay on M tb H37Rv and against Mycobacterium abscessus were 0.015 µg/mL (≈ 0.0408 µM) and 0.16 µg/mL (≈ 0.435 µM), respectively.

Turning to `Cc1nc2[nH]c(C(=O)NC3CC[Si](C)(C)C3)cc2c(F)c1F` (stereo not shown) [MPL-295, N-(1,1-dimethylsilolan-3-yl)-4,5-difluoro-6-methyl-1H-pyrrolo[2,3-b]pyridine-2-carboxamide], the MIC in the assay with M tb H37Rv is 0.024 µg/mL (≈ 0.0742 µM); against Mycobacterium abscessus it was 0.28 µg/mL (≈ 0.866 µM).

Regarding `Cc1cc(F)c2cc(C(=O)NC3CCC(C)(C)CC3)[nH]c2n1` [MPL-118, N-(4,4-dimethylcyclohexyl)-4-fluoro-6-methyl-1H-pyrrolo[2,3-b]pyridine-2-carboxamide], the MIC in the assay on M tb H37Rv came out at 0.017 µg/mL (≈ 0.056 µM); in the assay on Mycobacterium abscessus, 1 µg/mL (≈ 3.3 µM).

Regarding `COc1cc(F)nc2[nH]c(C(=O)NC3CC[Si](C)(C)CC3)cc12` [MPL-200, N-(1,1-dimethylsilinan-4-yl)-6-fluoro-4-methoxy-1H-pyrrolo[2,3-b]pyridine-2-carboxamide], the results for the MIC with M tb H37Rv and against Mycobacterium abscessus were 0.072 µg/mL (≈ 0.215 µM) and 16 µg/mL (≈ 47.7 µM), respectively.

For the compound `Cc1nc2[nH]c(C(=O)NC3CC[Si](C)(C)CC3)cc2c(C)c1Cl` [MPL-239, 5-chloro-N-(1,1-dimethylsilinan-4-yl)-4,6-dimethyl-1H-pyrrolo[2,3-b]pyridine-2-carboxamide], the values for the MIC in the assay with M tb H37Rv and in the assay with Mycobacterium abscessus were 0.0078 µg/mL (≈ 0.0223 µM) and 16 µg/mL (≈ 45.7 µM), respectively.

As to `Cc1cc(Cl)c2cc(C(=O)NC3CC[Si](C)(C)CC3)[nH]c2n1` [MPL-208, 4-chloro-N-(1,1-dimethylsilinan-4-yl)-6-methyl-1H-pyrrolo[2,3-b]pyridine-2-carboxamide], the minimal inhibitory concentration (MIC) turned out to be 0.0045 µg/mL (≈ 0.0134 µM) with M tb H37Rv and 1 µg/mL (≈ 2.98 µM) in the assay on Mycobacterium abscessus.

`Cc1cc(Cl)c2cc(C(=O)NC3CCC[Si](C)(C)CC3)[nH]c2n1` (stereo not shown) [MPL-274, 4-chloro-N-(1,1-dimethylsilepan-4-yl)-6-methyl-1H-pyrrolo[2,3-b]pyridine-2-carboxamide]: the figures for the MIC in the assay on M tb H37Rv and against Mycobacterium abscessus were 0.01 µg/mL (≈ 0.0286 µM) and 0.75 µg/mL (≈ 2.14 µM), respectively.

Take `Cc1nc2[nH]c(C(=O)NC3CC[Si](C)(C)CC3)cc2c(F)c1F` [MPL-229, N-(1,1-dimethylsilinan-4-yl)-4,5-difluoro-6-methyl-1H-pyrrolo[2,3-b]pyridine-2-carboxamide]: the minimum inhibitory concentration (MIC) in the assay with M tb H37Rv came to 0.0058 µg/mL (≈ 0.0172 µM); against Mycobacterium abscessus it was 0.12 µg/mL (≈ 0.356 µM).
